This is an account of results in PubChem BioAssay (NCI).

What all share (assay): growth of human tumour cells (NCI), 48 h
Assay [1] relates to HOP-92 NSCLC.
Assay [2] concerns SK-MEL-28 melanoma.
The subject of assay [3] is MOLT-4 leukemia.
Assay [4] relates to HOP-62 NSCLC.
Assay [5] relates to M14 melanoma.
For assay [6], the system named is SW-620 colon.
Assay [7] has as its system SN12C renal.
For assay [8], the system named is U251 CNS.
Assay [9] deals with ACHN renal.
Assay [10] deals with NCI-H226 lung.

Several values for one entry are separate records, joined by “and”; a condition that tells them apart may be missing. Equal entries are not always repeated.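 A five-concentration, 48-hour dose response in 96-well plates underlies each endpoint, interpolated linearly between surrounding concentrations. Here, GI50 denotes the concentration required for 50% inhibition of growth. TGI marks complete inhibition of growth.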

Turning to `O=S(O)CCCCSSCC(O)C(O)CSSCCCCS(=O)O` (centres undefined), the TGI in assay [1] is 79.7 µM and 96.5 µM; in assay [2], 45.1 µM and > 100 µM; in assay [3], 6.69 µM and 9.58 µM; in assay [4] it was above 100 µM; in assay [5] it was 24.2 µM and 30.6 µM; in assay [6], 47.6 µM and 61.8 µM. Besides, the TGI was above 100 µM in assay [7]; above 100 µM in assay [8]; 68.7 µM and 90 µM in assay [9].

On to `C=C(F)C(=O)N1CCN(c2nc(OC[C@@H]3CCCN3C)nc3c2CCN(c2cccc4cccc(Cl)c24)C3)C[C@@H]1CC#N`, for which the GI50 in [1] was 0.437 µM; in assay [2], 1.32 µM; in assay [3] it was 0.573 µM; in [4] it was below 0.01 µM; in assay [5] it was 1.06 µM; in [6] it was 0.992 µM. In addition, the GI50 in [7] was 1.31 µM; in assay [8], 1.02 µM; in [9], 0.962 µM. The TGI in [1] was determined as 1.85 µM; in assay [2] it was 2.72 µM; in assay [3] it was 2.71 µM; in [4], 1.48 µM; in [5], 2.34 µM; in assay [6], 2.52 µM. For the same compound, the figures for the TGI in assay [7], in assay [8] and in assay [9] were 2.83 µM, 2.21 µM and 2.58 µM, respectively.

In the case of `CC1=CC(/C=C(\C)CCCc2ccoc2)C2(OC(=O)C(C)=C2O)[C@H]2C1CC[C@@H]2C` (some centres undefined), the TGI in assay [1] was 41 µM; in [2] it was above 100 µM; in assay [3] it was 41.3 µM; in assay [10], 54.6 µM; in assay [5], 60.9 µM; in [6], above 100 µM. The TGI in [7] came to 60.8 µM; in assay [8], 67.1 µM; in [9] it was 76.4 µM.

For `CC(C)(C)[SiH]12(OC(C(F)(F)F)(C(F)(F)F)c3ccccc31)OC(C(F)(F)F)(C(F)(F)F)c1ccccc12`, the TGI in [2] is 28.4 µM; in assay [3], 5.41 µM; in assay [10], 5.05 µM; in [5] it was 12.7 µM; in assay [6] it was 18.1 µM; in [7], 19.4 µM. For the same compound, the TGI in assay [8] was 6.19 µM; in assay [9] it was 21.7 µM.

For `OCCN1CN(CCO)CN(c2nc(N3CN(CCO)CN(CCO)C3)nc(N3CN(CCO)CN(CCO)C3)n2)C1`, the GI50 in assay [1] is 1.85 ng/mL; in assay [3], 1.23 ng/mL; in assay [5] it was 1.36 ng/mL; in assay [7] it was 6.3 ng/mL. The TGI was 4.52 ng/mL in assay [1]; 4.78 ng/mL in [3]; 0.63 ng/mL in assay [10]; 3.55 ng/mL in assay [5]; 1.04 ng/mL in assay [6]; 7.22 ng/mL in [7]. The TGI in assay [9] was 1.64 ng/mL.

In the case of `O=[n+]1c2c(n([O-])c3ccccc31)CCCCCCCCCC2`, the TGI in assay [1] was above 100 µM; in assay [2], above 100 µM; in assay [3], above 100 µM; in assay [10], 61.8 µM; in [5], above 100 µM; in [6], above 100 µM. Further, the TGI in assay [7], in assay [8] and in assay [9] was above 100 µM throughout.

Turning to `Cc1ccccc1N1C(=O)/C(=C/c2ccc(N(CCC#N)CCC#N)cc2)N=C1c1cc([N+](=O)[O-])ccc1Cl`, the TGI in assay [2], in assay [3], in assay [4], in [10], in [5] and in assay [6] was above 100 µM throughout. For the same compound, the TGI in [7], in assay [8] and in assay [9] was above 100 µM each time.

Regarding `C=C(C)[C@@]12OC3(/C=C/C=C/CCCCC)O[C@@H]1[C@@H]1[C@@H]4O[C@]4(CO)[C@@H](O)[C@]4(O)C(=O)C(C)=C[C@H]4[C@@]1(O3)[C@H](C)[C@H]2OC(=O)c1ccccc1`, the GI50 in assay [1] was below 0.01 µM; in assay [2], 1.18 µM; in [4] it was below 0.01 µM; in [10], 1.68 µM; in assay [5], 1.57 µM; in assay [7], 1.49 µM. Also, the GI50 in [8] is 1.24 µM; in assay [9], 1.16 µM. Also, the TGI is 2.13 µM in assay [1]; 2.42 µM in [2]; 4.84 µM in [4]; 3.21 µM in assay [10]; 5.38 µM in assay [5]; 2.83 µM in assay [7]. For the same compound, the TGI in [8] stood at 2.48 µM; in assay [9], 4.43 µM.

Consider `CSc1nc2c(nc(C)c(=O)n2C2OCC(OC(C)=O)C(OC(C)=O)C2OC(C)=O)c(=O)[nH]1` (centres undefined), for which the TGI in assay [1], in assay [2], in [3], in assay [4], in assay [5] and in assay [6] was above 100 µM each time. In addition, the TGI in [7], in assay [8] and in assay [9] was above 100 µM in each case.

Regarding `CCC[CH2][Sn]([CH2]CCC)([CH2]CCC)[O]C(=O)CC`, the GI50 in assay [1] is 0.137 µM; in [2], 0.161 µM; in assay [3], 0.247 µM; in assay [4] it was 0.188 µM; in assay [5] it was 0.167 µM; in [6] it was 0.151 µM. Moreover, the GI50 in [7] was 0.158 µM; in assay [8], 0.168 µM; in assay [9], 0.17 µM. Besides, the TGI in assay [1] stood at 0.429 µM; in [2], 0.318 µM; in [3], 1 µM; in [4] it was 0.414 µM; in assay [5], 0.343 µM; in assay [6], 0.301 µM. The values for the TGI in assay [7], in assay [8] and in [9] were 0.365 µM, 0.327 µM and 0.333 µM, respectively.

As to `Cc1ccc(SC(C)/C=C/NNC2=NC(c3ccccc3)C(c3ccccc3)=NN2)cc1` (centres undefined), the TGI is 66.1 µM in [1]; above 100 µM in assay [2]; above 100 µM in assay [3]; 98.1 µM in assay [10]; above 100 µM in assay [5]; above 100 µM in [6]. Besides, the TGI in [7] and in assay [9] was above 100 µM in each case.
